Laboratory results as given in patent publication US9974787B2, “Modified albumin microbubble” (National Taiwan University of Science and Technology, priority 2016, dated 2018).
Values joined by “and” are separate entries in the source; they are usually repeats but may differ in a detail not shown here. Equal values may be shown once.

Legend:
C57BL/6 mice = test: Study of animal hair growth (skin luminosity of shaved back); type: in vivo; settings: for number of mice with significantly lower skin luminosity: day 10, Mx 0.3 mg/ml topical; for hair growth rate: day 16, Mx 0.3 mg/ml
Experimental: Study of Animal Hair Growth
The study utilized 6-week-old C57BL/6 mice weighing 20-25 g, which were shaved at an area of about 10 cm^2 in the back at 8 weeks old, when all of the hair follicles were synchronized in the telogen phase. […] Among all groups, the US treatment was applied at 3 W/cm^2 for 1 min, and the concentration of Mx was 0.3 mg/ml (i.e. 0.5 ml/cm^2) in all groups. The change in skin luminosity of the shaved area was assessed using the Chroma Meter. The hair growth rate was calculated according to the following equation: Hair growth rate (%)=(L1−Ln)/L1×100%
where L1 is the luminosity index of the shaved area, and Ln is the luminosity index of the area at different time intervals.

[1] = Transdermal penetration study of Mx released by Mx-COL-MBs (Franz diffusion cell); type: in vitro ADME, porcine; settings: Mx 0.3 mg/ml; for Amount of skin penetration (cumulative Mx penetration amount): 18th hour; for Amount of total penetration: 18 hours; for Amount of skin absorption: after 18 hours
Experimental: Transdermal Penetration Study of Mx Released by Mx-COL-MBs
The procedures of the study included: interposing a piece of 3 mm-thick porcine ear skin between a donor cell and a receptor cell of the Franz diffusion cell at a temperature of 37±0.5° C. 1 ml of any one of the abovementioned 6 solutions was applied to the donor cell facing the stratum corneum (SC) side, enabling the MB, Mx, or Mx-COL-MB to penetrate the Parafilm on a bottom of the donor cell and reach the skin. Besides, the receptor cell facing the dermis side was filled with 12 ml of PBS at pH 7.4, accompanied with magnetic stirring at the rate of 600 rpm and 0.01% gentamicin to prevent bacterial degradation of the Mx during the penetration process. At the 0.5th hr, a 1-MHz ultrasound sonicator was positioned 3 mm from the top of the skin, and the skin was sonicated at a power density of 3 W/cm^2 for 1 min. At the time intervals of 0.5, 1, 2, 3, 4, 5, 6, 8, 12 and 18 hours, 1 ml of receptor solution sample filtered by 0.2-μm pores was extracted from the receptor cell to measure the Mx content in the receptor solution, with the receptor solution refilled each time with the same volume of PBS. After 18 hours, the porcine skin sample was washed and then homogenized with 1 ml of the receptor solution. The supernatant was centrifuged to acquire further supernatant to measure the absorbed amount of Mx in the porcine ear skin.

[2] = Study of transdermal penetration depth (FITC); settings: 0.1 mg FITC, retained 6 hr on porcine ear skin
Experimental: Study of Transdermal Penetration Depth
Each group contained 0.1 mg FITC (fluorescein isothiocyanate), and was uniformly loaded onto the porcine ear skin with an area of 4.5 cm^2 and a thickness of 3 mm, sonicated by the 1-MHz ultrasound sonicator successively at power density of 3 W/cm^2, with each sonication period of 1 min. After sonication, the FITC (and the MBs) retained on the porcine ear skin for 6 hr, and was then washed away.
FIG. 7A-7C are bright-field images, and FIG. 7D-7F are dark-field fluorescent images.

[3] = with US treatment 3 W/cm^2, 1 min
[4] = with ultrasound treatment 3 W/cm^2, 1 min

With `Nc1cc(N2CCCCC2)nc(N)[n+]1[O-]` [Comparative example 4, Minoxidil] the “number of mice with significantly lower skin luminosity” value (C57BL/6 mice; without US treatment) was 1, the hair growth rate (C57BL/6 mice; without US treatment) was 45.5% and the “Amount of skin penetration (cumulative Mx penetration amount)” value ([1]; without ultrasound treatment) was 103.1 ± 0.5 µg/mL and 103.1 ± 0.51 µg/mL. For the same molecule, the “Amount of total penetration” value ([1]; without ultrasound treatment) was 155.54 ± 10.05 µg/mL and the “Amount of skin absorption” value ([1]; without ultrasound treatment) was 52.42 ± 9.55 µg/mL.
For `Nc1cc(N2CCCCC2)nc(N)[n+]1[O-]` [Comparative example 8, Minoxidil], the “number of mice with significantly lower skin luminosity” value (C57BL/6 mice; [3]) was 1, the hair growth rate (C57BL/6 mice; [3]) was 64.5% and the “Amount of skin penetration (cumulative Mx penetration amount)” value [1, 4] was 113.0 ± 6.0 µg/mL and 113.01 ± 5.95 µg/mL. For the same molecule, the “Amount of total penetration” value [1, 4] was 126.04 ± 7.52 µg/mL and the “Amount of skin absorption” value [1, 4] was 33.02 ± 1.56 µg/mL.
For “fluorescein isothiocyanate [Comparative example 6]”, the “penetration depth of FITC” value ([2]; without US treatment) was 312±19 μm.
In the case of “fluorescein isothiocyanate [Comparative example 7]”, the “penetration depth of FITC” value ([2]; with US treatment 1 MHz, 3 W/cm^2, 1 min) is reported as 405±23 μm.
